Ends that are not written are not given here.
Key:
[1] = test system: Mice; assay: Appetite suppression in mice, infant formula milk (Complan) consumption; type: in vivo
Procedure: (§1) Mice were deprived of their normal feed for two days and given free access to a 20% sucrose solution on the first day of feed deprivation. After the 2-day feed deprivation period, mice were injected intraperitoneally with 0.5 ml of a solution containing the test substance. Thirty minutes after injection, individual mice were placed in one of eight 15 cm^2 test box with a stainless steel grid floor and a glass drinking tube which projected into the box. The drinking tube was connected to a reservoir containing a 20% sucrose solution, and the interior of the drinking tube contained an electrode enabling the detection of drinking contacts with the solution by measuring the flow of a weak (unnoticeable) electric current through mice by means of an electronic apparatus connected to the drinking tube electrode and the stainless steel grid floor. Consumption of the sucrose solution was measured over a 10 minute period by electronically recording the total amount of contact with the sucrose solution during the test session. The degree of appetite suppression produced by a given test substance was determined by statistical comparison of the duration of sucrose consumption by control (vehicle treated) mice with that of mice treated with a test substance. The degree of appetite suppression in a treated group of mice was expressed as percent of the control groups response.
The method is as in Example 5, but instead of 20% sucrose, a solution of infant formula milk (Complan®) is used. The test substance is dissolved in a vehicle consisting of phosphate buffered saline with 1% albumin. Test substances dissolved in vehicle are injected either intravenously (IV) in a volume of 100 microliters, or intra-cerebroventricularly (ICV) in a volume of 10 microliters.
Mice were tested for appetite suppression as described in Example 8 after treatment with a test substance consisting of synthetic human GLP-2.

[2] = test system: fasted rats; details: cited from earlier work
[3] = test system: Mice; assay: Appetite suppression in mice, 20% sucrose solution consumption; type: in vivo; details: intraperitoneal injection, 50 micrograms
Procedure: as §1, with “response. […]” for “response.”

## CC[C@H](C)[C@H](NC(=O)[C@H](Cc1ccccc1)NC(=O)[C@H](CC(=O)O)NC(=O)[C@H](CCCNC(=N)N)NC(=O)[C@H](C)NC(=O)[C@H](C)NC(=O)[C@H](CC(C)C)NC(=O)[C@H](CC(N)=O)NC(=O)[C@H](CC(=O)O)NC(=O)[C@H](CC(C)C)NC(=O)[C@@H](NC(=O)[C@@H](NC(=O)[C@H](CC(N)=O)NC(=O)[C@H](CCSC)NC(=O)[C@H](CCC(=O)O)NC(=O)[C@H](CC(=O)O)NC(=O)[C@H](CO)NC(=O)[C@H](Cc1ccccc1)NC(=O)[C@H](CO)NC(=O)CNC(=O)[C@H](CC(=O)O)NC(=O)[C@H](C)NC(=O)[C@@H](N)Cc1c[nH]cn1)[C@@H](C)O)[C@@H](C)CC)C(=O)N[C@@H](CC(N)=O)C(=O)N[C@@H](Cc1c[nH]c2ccccc12)C(=O)N[C@@H](CC(C)C)C(=O)N[C@H](C(=O)N[C@@H](CCC(N)=O)C(=O)N[C@H](C(=O)N[C@@H](CCCCN)C(=O)N[C@H](C(=O)N[C@H](C(=O)N[C@@H](CC(=O)O)C(=O)O)[C@@H](C)O)[C@@H](C)CC)[C@@H](C)O)[C@@H](C)CC [synthetic human GLP-2, human GLP-2]
[1]; ICV injection, 3 micrograms
  suppression of milk consumption: 32%
[1]; ICV injection, 10 micrograms
  suppression of milk consumption: 35%
[1]; IV injection, 3 micrograms
  suppression of milk consumption: 24%

## GLP-1
[2]; fasted rats, intracerebroventricular (ICV) administration
  effect on feeding: inhibited feeding
[2]; peripheral administration
  effect on feeding behaviour: no effect on feeding behaviour

## Glucagon
[2]; fasted rats, intraperitoneal administration of pharmacological doses
  effect on food intake: no effect on food intake

## HADGSFSDEMNTVLDNLATRDFINWLLHTKITD [synthetic porcine GLP-2, porcine GLP-2]
[3]
  suppression of sucrose consumption: 38%
